Data: patent US6521643B1, “Pyridine compounds and their pharmaceutical use” (Fujisawa Pharmaceutical Co., Ltd., priority 1999, dated 2003)
Structures can show the parent of a compound that is named as a salt.

Tests used:
[1] = molecular target: T1, Nitric Oxide Synthase (NOS) (Rattus norvegicus, UniProt P29476); assay: Binding assay using nitric oxide synthase (NOS), crude preparation from rat brain cytosol, [3H]Na radioligand; conditions: test compound 10^−4M, brain cytosol of male SD rats, 10 nM [^3H]Na, 27° C., 90 minutes; for inhibition: read-out: Inhibition (%) of specific binding
T1 construct: each drug was incubated with the brain cytosol (200 μg protein/tube); from tissue; host or cells: whole brain (including cerebellum) of male SD rats, cytosolic supernatant (48,000 x g), passed through Dowex AG50WX-8
Protocol: Test: Binding Assay Using Nitric Oxide Synthase (NOS)
A crude preparation of NOS was obtained from brains of male SD rats. The whole brain (including cerebellum) was homogenized with 5 volume (W/V) of 50 mM Tris buffer (pH 7.0 at 4° C.) and centrifuged at 48,000×g for 20 minutes. The pellet was discarded and the supernatant was passed through ¼ volume (V/V) of Dowex AG50WX-8 resin (Na^+ form), in order to remove endogenous arginine. The supernatant was collected, the pH was adjusted to 7.0 at 22° C., and this cytosolic preparation was frozen and stored at −80° C. until required. In the binding assay, each drug was incubated with the brain cytosol (200 μg protein/tube) in 0.15 ml (final volume) of 50 mM Tris buffer containing 10 μM CaCl2 and 10 nM [^3H]Na (Amersham, UK). Incubation was performed at 27° C. for 90 minutes and terminated by vacuum filtration through 0.3% polyethyleneimine pretreated GF/B glass fibre filters which were subsequently washed with distilled water (4° C., 4 ml×4). Nonspecific binding was defined by use of […] Na. Data are expressed as inhibition % of specific binding.

Q: With COc1ccnc(-c2sc(NC(=N)N)nc2C)c1 [(a), 2-Guanidino-4-methyl-5-(4-methoxypyridin-2-yl)thiazole] as the compound, how does the inhibition [1] read?
A: 99%

Q: For COc1ccnc(-c2ccc(C)c(NC(=N)N)c2)c1.Cl.Cl [(b), (5-(4-Methoxypyridin-2-yl)-2-methylphenyl)guanidine dihydrochloride], which “Inhibition (%) of specific binding” value [1] is on record?
A: 98.9%

Q: Which inhibition [1] does the source give for CCSC(=N)Nc1cccc(-c2cc(OC)ccn2)c1 [(c), N-(3-(4-Methoxypyridin-2-yl)phenyl)-S-ethylisothiourea dihydrochloride] here?
A: 100%

Q: For COc1ccnc(-c2ccc3ccc(N)nc3c2)c1 [(d), 2-Amino-7-(4-methoxypyridin-2-yl)quinoline dihydrochloride], which inhibition [1] is on record?
A: 99.3%

Q: With Cc1ccnc(-c2ccc3ccc(N)nc3c2)c1 [(e), 2-Amino-7-(4-methylpyridin-2-yl)quinoline dihydrochloride] as the compound, how does the inhibition [1] read?
A: 98%

Q: For CNc1ccc2ccc(-c3cc(OC)ccn3)cc2n1 [(f), 7-(4-Methoxypyridin-2-yl)-2-methylaminoquinoline dihydrochloride], which inhibition [1] is on record?
A: 99.4%

Q: For Cc1ccnc(C(O)c2sc(NC(=N)N)nc2C)c1 (centres unmarked) [Example 24, N-(5-(hydroxy-(4-methylpyridin-2-yl)methyl)-4-methylthiazol-2-yl)guanidine], which melting point is on record?
A: 150.5 to 151.5 °C

Q: Which melting point does the source give for CC(=O)NC(c1cc(C)ccn1)c1sc(NC(=N)N)nc1C (centres unmarked) [Example 26, N-(5-(acetylamino-(4-methylpyridin-2-yl)methyl)-4-methylthiazol-2-yl)-guanidine] here?
A: 239 to 240 °C
